Test [1] concerns the target Serine/threonine-protein kinase 10 (Homo sapiens) (UniProt O94804). The test is described as follows: Inhibition of LOK (unknown origin) assessed as residual activity at 100 nM by KINOMEscan analysis relative to control.
Test [2] deals with Serine/threonine-protein kinase PAK 2 (Homo sapiens) (UniProt Q13177). Nature of the test: Inhibition of PAK2 (unknown origin) assessed as residual activity at 100 nM by KINOMEscan analysis relative to control.
Test [3] has as its target Tyrosine-protein kinase Fyn (Homo sapiens) (UniProt P06241). Nature of the test: Inhibition of FYN (unknown origin) assessed as residual activity at 100 nM by KINOMEscan analysis relative to control.
Test [4] deals with Wee1-like protein kinase (Homo sapiens) (UniProt P30291). The test is described as follows: Inhibition of WEE1 (unknown origin) assessed as residual activity at 100 nM by KINOMEscan analysis relative to control.
Sequence of Wee1-like protein kinase (Homo sapiens) (P30291 whole entry, looked up): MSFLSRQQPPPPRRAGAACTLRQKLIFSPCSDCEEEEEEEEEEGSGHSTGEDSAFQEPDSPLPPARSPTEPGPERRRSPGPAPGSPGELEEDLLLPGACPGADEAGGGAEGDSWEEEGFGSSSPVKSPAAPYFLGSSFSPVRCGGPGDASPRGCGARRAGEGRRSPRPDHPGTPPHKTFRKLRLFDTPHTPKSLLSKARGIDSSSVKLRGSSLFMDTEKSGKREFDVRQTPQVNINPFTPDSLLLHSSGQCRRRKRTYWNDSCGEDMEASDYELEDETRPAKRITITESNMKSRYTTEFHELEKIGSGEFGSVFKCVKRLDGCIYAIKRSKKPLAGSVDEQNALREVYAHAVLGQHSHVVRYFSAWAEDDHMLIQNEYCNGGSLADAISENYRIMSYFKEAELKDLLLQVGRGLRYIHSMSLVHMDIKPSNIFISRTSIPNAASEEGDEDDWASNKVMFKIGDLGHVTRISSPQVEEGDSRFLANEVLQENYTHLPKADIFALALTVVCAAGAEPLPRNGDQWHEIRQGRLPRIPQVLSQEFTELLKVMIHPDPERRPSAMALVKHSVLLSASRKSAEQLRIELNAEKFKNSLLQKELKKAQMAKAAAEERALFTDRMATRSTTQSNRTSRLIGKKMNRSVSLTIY
Test [5] addresses Tyrosine-protein kinase ABL1 (Homo sapiens) (UniProt P00519). Nature of the test: Inhibition of phosphorylated ABL1 (unknown origin) assessed as residual activity at 100 nM by KINOMEscan analysis relative to control.
For test [6], the target named is T1, Inhibitor of nuclear factor kappa-B kinase subunit beta (Homo sapiens) (UniProt O14920).
T1 sequence (whole entry): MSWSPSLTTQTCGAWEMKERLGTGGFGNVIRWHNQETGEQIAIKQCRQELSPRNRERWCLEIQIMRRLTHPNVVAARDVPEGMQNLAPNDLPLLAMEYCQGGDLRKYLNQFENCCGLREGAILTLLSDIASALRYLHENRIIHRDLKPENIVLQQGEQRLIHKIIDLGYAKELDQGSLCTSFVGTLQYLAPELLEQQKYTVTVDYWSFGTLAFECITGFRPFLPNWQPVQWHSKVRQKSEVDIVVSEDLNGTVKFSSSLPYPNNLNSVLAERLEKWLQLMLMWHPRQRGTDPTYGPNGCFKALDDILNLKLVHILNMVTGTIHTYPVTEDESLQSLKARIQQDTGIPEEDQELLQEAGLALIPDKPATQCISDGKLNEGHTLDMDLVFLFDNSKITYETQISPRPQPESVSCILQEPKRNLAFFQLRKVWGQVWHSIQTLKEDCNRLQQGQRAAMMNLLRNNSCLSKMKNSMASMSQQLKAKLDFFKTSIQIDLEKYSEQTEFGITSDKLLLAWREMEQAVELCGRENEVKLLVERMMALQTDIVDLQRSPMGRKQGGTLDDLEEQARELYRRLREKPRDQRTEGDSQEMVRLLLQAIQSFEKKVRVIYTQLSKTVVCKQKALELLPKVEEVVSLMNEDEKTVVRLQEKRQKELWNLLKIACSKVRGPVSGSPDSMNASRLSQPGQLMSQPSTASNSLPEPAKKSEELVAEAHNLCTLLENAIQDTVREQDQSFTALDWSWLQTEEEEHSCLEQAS
Nature of the test: Inhibition of IKK-beta (unknown origin) assessed as residual activity at 100 nM by KINOMEscan analysis relative to control.

Test [7] deals with Ribosomal protein S6 kinase alpha-4 (Homo sapiens) (UniProt O75676). Nature of the test: Inhibition of N-terminal RPS6KA4 […] domain 1 (unknown origin) assessed as residual activity at 100 nM by KINOMEscan analysis relative to control.
Sequence of Ribosomal protein S6 kinase alpha-4 (Homo sapiens) (O75676 whole entry, looked up): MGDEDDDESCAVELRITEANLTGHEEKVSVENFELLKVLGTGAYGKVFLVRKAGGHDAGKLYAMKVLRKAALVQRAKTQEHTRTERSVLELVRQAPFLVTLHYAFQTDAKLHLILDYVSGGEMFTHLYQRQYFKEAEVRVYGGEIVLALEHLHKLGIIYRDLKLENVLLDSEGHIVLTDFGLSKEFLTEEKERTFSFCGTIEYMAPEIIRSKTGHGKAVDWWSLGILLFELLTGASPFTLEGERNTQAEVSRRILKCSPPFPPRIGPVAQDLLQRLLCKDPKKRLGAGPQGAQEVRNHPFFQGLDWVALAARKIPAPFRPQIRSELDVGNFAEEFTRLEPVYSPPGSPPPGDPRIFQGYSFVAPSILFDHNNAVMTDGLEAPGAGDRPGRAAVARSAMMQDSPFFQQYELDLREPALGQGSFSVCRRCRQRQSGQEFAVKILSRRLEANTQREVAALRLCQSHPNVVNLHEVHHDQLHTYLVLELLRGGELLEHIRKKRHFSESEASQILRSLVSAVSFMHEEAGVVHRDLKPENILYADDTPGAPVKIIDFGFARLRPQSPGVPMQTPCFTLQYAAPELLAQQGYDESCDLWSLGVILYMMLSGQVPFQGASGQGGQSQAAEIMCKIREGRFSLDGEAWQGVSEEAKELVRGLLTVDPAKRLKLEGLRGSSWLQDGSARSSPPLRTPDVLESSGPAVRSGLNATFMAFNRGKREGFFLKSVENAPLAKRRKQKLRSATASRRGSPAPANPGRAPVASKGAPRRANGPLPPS
Test [8] has as its target T2, Ephrin type-A receptor 3 (Homo sapiens) (UniProt P29320).
T2 sequence (whole entry): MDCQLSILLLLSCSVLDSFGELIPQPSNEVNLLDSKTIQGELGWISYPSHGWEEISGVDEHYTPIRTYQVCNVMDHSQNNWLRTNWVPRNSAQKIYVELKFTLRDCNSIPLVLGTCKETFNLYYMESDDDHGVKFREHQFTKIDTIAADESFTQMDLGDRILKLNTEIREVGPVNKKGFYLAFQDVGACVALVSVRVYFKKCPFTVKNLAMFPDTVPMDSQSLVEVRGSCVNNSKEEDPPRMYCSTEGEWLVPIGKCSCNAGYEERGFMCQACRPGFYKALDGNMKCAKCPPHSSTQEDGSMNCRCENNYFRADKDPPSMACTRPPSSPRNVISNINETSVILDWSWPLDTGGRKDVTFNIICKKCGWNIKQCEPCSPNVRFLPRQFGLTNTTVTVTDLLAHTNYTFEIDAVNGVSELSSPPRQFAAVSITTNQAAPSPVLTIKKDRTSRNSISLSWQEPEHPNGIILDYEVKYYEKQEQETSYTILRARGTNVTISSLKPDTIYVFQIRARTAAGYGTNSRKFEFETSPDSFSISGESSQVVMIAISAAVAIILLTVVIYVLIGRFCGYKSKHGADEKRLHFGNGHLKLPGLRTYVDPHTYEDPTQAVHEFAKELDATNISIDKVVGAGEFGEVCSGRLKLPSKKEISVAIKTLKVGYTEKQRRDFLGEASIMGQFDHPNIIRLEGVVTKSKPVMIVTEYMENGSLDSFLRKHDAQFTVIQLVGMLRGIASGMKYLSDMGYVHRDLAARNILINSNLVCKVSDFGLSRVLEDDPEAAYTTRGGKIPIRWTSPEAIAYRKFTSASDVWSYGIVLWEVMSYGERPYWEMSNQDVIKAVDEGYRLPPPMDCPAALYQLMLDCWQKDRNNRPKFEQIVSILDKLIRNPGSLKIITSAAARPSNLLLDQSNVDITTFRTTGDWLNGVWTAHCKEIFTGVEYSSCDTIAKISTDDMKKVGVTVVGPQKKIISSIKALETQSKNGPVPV
Nature of the test: Inhibition of EPHA3 (unknown origin) assessed as residual activity at 100 nM by KINOMEscan analysis relative to control.

Test [9] addresses T3, 3-phosphoinositide-dependent protein kinase 1 (Homo sapiens) (UniProt O15530).
T3 sequence (whole entry): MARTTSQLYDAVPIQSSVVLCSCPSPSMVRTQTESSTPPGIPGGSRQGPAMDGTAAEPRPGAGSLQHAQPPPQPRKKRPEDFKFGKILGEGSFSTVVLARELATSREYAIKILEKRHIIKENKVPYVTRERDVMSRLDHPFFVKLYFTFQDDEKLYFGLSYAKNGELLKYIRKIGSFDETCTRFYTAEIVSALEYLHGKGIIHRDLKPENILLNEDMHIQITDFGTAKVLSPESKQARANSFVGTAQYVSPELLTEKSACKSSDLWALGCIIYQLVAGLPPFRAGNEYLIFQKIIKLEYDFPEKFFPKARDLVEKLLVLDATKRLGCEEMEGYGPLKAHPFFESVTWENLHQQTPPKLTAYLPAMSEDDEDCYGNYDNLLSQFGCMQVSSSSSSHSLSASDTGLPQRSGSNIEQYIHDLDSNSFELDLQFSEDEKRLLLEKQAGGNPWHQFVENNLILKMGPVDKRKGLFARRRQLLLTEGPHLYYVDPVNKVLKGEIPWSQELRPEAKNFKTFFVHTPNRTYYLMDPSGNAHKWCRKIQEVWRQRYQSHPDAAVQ
Nature of the test: Inhibition of PDPK1 (unknown origin) assessed as residual activity at 100 nM by KINOMEscan analysis relative to control.

The species named for a further test is Homo sapiens. Nature of the test: Inhibition of JNK3 (unknown origin) assessed as residual activity at 100 nM by KINOMEscan analysis relative to control.

Drawing on ChEMBL document CHEMBL5678818, “Discovery of potent SOS1 inhibitors that block RAS activation via disruption of the RAS-SOS1 interaction” (Proc Natl Acad Sci U S A, 2019), this text covers Activity for one molecule.

Sequence of Tyrosine-protein kinase Fyn (Homo sapiens) (P06241 2-537 limits assumed): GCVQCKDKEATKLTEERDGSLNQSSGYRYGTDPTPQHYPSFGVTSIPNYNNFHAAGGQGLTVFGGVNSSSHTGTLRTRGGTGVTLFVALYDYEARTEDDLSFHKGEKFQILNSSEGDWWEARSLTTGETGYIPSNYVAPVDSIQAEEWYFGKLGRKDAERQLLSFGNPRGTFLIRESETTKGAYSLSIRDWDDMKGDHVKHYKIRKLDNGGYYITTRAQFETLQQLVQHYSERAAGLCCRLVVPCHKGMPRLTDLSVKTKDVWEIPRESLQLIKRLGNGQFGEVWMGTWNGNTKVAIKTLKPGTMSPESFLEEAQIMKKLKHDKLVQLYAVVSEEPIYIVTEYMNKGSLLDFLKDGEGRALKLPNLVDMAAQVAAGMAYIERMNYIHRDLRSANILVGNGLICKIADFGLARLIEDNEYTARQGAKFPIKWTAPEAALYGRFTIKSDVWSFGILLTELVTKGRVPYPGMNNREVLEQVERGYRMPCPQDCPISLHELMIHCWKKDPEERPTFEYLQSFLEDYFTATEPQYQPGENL
Sequence of Tyrosine-protein kinase ABL1 (Homo sapiens) (P00519 whole entry): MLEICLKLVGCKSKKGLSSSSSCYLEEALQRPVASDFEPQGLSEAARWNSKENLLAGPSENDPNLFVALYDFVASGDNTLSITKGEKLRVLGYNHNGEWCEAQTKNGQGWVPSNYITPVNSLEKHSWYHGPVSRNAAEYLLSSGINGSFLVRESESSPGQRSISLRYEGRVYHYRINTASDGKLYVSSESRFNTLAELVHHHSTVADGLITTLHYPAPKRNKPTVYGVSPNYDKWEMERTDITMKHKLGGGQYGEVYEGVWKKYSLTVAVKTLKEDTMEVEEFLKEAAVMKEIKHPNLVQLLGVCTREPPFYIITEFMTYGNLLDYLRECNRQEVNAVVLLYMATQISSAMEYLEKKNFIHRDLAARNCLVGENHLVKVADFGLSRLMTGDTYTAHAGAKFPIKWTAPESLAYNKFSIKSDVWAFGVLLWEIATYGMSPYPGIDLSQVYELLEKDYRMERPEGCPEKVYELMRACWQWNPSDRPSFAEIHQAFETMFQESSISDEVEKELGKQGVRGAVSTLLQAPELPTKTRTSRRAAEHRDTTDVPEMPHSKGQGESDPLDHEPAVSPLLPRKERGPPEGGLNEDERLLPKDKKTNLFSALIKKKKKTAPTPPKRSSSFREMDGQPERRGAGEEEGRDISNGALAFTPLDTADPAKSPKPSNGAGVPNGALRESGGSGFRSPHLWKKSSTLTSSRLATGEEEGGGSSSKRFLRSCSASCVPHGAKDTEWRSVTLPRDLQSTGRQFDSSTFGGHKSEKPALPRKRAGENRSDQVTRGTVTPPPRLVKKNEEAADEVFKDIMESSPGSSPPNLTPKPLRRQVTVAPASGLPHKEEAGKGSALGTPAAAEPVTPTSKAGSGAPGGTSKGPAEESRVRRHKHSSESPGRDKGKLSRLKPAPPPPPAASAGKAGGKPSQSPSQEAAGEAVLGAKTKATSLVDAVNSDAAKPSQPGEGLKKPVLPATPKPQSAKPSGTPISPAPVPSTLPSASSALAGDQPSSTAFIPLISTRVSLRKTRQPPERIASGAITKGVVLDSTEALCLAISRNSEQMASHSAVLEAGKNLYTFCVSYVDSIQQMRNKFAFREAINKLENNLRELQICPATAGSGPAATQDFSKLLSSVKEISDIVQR
Sequence of Serine/threonine-protein kinase PAK 2 (Homo sapiens) (Q13177 whole entry): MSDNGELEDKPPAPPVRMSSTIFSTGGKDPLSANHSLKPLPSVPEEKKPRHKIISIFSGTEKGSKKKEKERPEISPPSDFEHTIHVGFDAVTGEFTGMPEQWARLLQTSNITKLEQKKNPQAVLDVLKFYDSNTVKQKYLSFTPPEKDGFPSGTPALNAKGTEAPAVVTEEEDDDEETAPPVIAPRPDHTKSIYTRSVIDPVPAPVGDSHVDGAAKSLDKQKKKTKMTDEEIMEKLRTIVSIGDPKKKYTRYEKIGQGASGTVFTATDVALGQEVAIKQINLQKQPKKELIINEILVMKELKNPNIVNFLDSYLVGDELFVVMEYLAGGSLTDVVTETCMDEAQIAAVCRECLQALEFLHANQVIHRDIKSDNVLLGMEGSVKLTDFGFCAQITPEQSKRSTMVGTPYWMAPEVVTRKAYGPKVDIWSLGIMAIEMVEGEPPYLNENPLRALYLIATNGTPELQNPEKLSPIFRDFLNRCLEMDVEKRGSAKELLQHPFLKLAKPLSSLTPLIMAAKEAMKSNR
Sequence of Serine/threonine-protein kinase 10 (Homo sapiens) (O94804 whole entry, looked up): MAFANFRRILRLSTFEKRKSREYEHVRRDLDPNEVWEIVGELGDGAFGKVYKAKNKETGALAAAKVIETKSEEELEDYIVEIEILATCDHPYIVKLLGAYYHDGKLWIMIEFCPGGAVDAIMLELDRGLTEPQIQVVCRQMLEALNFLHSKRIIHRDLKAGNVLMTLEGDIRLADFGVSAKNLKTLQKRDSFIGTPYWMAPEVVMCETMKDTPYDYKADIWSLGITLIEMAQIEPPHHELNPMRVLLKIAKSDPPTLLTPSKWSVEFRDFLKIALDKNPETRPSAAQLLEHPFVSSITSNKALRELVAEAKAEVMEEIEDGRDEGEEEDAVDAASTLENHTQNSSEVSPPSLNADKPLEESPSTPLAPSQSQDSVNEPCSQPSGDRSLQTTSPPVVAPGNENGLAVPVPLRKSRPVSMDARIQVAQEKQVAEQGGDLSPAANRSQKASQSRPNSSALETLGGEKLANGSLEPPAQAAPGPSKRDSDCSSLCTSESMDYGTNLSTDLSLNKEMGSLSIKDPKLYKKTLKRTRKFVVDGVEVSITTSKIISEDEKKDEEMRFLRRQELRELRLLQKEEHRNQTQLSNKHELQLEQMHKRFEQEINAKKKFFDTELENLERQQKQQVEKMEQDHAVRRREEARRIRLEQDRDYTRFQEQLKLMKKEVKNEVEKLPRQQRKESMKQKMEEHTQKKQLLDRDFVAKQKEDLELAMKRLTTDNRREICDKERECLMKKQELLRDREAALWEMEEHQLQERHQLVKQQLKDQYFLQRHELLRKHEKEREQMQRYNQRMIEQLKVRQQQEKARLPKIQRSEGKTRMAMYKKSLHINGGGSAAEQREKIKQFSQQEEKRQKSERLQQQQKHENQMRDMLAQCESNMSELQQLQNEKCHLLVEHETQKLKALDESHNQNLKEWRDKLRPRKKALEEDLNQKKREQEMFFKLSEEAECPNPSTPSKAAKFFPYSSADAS

Regarding `COc1cc2ncnc(N[C@H](C)c3cccc4ccccc34)c2cc1OC`, the Activity stood at 98% in test [1]; 100% in test [2]; 85% in [3]; 88% in test [4]; 93% in test [5]; 84% in [6]. Moreover, the Activity in test [7] came out at 100%; in test [8] it was 81%; in [9], 79%; in the test listed under Homo sapiens it was 77%.
